From paper PMC2649788 (Drug metabolism and disposition: the biological fate of …, 2008)
Residue numbers refer to the chain shown, from its start. Where “and” joins values, the source holds several entries; their conditions need not be identical. Equal entries are not always repeated.

What was measured:
CYP2B6dH [1] = target: T1, CYP2B6dH (Homo sapiens, UniProt P20813); conditions: ref Bumpus et al., 2006, cited from earlier work
T1 sequence (P20813 with tags, fused parts or gaps limits assumed): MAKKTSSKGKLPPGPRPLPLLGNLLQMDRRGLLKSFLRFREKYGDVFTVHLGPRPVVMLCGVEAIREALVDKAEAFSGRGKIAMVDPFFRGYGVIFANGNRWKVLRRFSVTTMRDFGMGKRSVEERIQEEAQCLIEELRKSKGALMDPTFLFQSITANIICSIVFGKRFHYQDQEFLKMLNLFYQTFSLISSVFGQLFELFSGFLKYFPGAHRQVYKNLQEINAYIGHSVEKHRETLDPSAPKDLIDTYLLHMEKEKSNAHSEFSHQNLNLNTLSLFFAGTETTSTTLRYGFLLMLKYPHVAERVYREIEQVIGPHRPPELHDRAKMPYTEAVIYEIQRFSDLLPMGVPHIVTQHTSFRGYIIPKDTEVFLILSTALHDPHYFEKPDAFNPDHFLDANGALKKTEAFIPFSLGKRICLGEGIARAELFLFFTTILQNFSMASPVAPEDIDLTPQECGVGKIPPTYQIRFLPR

K262R [2] = conditions: ref Bumpus et al., 2006, cited from earlier work
*1/*4 heterozygotes = conditions: ref Rotger et al., 2007; cited from earlier work
K262R [3] = conditions: in contrast to CYP2B6dH, ref Bumpus et al., 2005, 2006; cited from earlier work
K262R [4] = format: biochemical, human; conditions: type II inhibitors; Supporting table 1
CYP2B6dH [5] = target: T1, CYP2B6dH; conditions: for Predicted in vivo % activity (CYP2B6dH): remaining efavirenz metabolism relative to no inhibitor; for Predicted inhibition of efavirenz metabolism (CYP2B6dH): in vivo prediction
[6] = read-out: Estimated in vivo Cmax; plasma, normal population; used as [I]; ref www.mentalhealth.com, www.medscape.com, www.pharmgkb.org, Burgess and Bodey, 1972, Goodwin and Drew, 2007; cited from earlier work
CYP2B6dH [7] = target: T1, CYP2B6dH; assay: Spectral binding; conditions: for Type of difference spectrum induced: CYP2B6dH and K262R, peak ~388 nm, trough ~420 nm; for ΔAmax (CYP2B6dH): difference spectra, 1 μM P450
K262R (2B6*4) [8] = target: T2, K262R (2B6*4) (Homo sapiens, UniProt P20813, K262R); assay: Spectral binding; conditions: for ΔAmax (K262R): difference spectra, 1 μM P450; for Higher Ks, K262R compared with CYP2B6dH / ΔAmax, K262R compared with wild-type: spectral binding
T2 sequence (P20813 with tags, fused parts or gaps K262R limits assumed): T1 sequence (P20813 with tags, fused parts or gaps limits assumed) with K243R

K262R (2B6*4) [9] = target: T2, K262R (2B6*4); assay: 7-MFC O-deethylation inhibition in standard reconstitution system; conditions: for Increase in Ki, K262R compared with CYP2B6dH: 7-MFC O-deethylation
Q172H/K262R (2B6*6) [10] = target: T3, Q172H/K262R (2B6*6) (Homo sapiens, UniProt P20813, K262R/Q172H); assay: as above; conditions: for Increase in Ki, Q172H/K262R compared with CYP2B6dH: 7-MFC O-deethylation; for Ki: Ki (Q172H/K262R), 7-MFC 25, 50, 100, 150 μM, global fit, duplicate
T3 sequence (P20813 with tags, fused parts or gaps Q172H/K262R limits assumed): T1 sequence (P20813 with tags, fused parts or gaps limits assumed) with Q153H, K243R

K262R [11] = test system: K262R; set-up: species or system human
CYP2B6dH [12] = target: T1, CYP2B6dH
Q172H/K262R (2B6*6) [13] = target: T3, Q172H/K262R (2B6*6)
CYP2B6dH [14] = target: T1, CYP2B6dH; assay: 7-MFC O-deethylation inhibition in standard reconstitution system; conditions: pH 7.4
CYP2B6 K262R (2B6*4) = target: T4, CYP2B6 K262R (2B6*4) (Homo sapiens, UniProt P20813, K262R); assay: as above; conditions: human, pH 7.4
T4 sequence (P20813 with tags, fused parts or gaps K262R limits assumed): T1 sequence (P20813 with tags, fused parts or gaps limits assumed) with K243R

[15] = target: T5, CYP2B6 Q172H/K262R (2B6*6) (Homo sapiens, UniProt P20813, K262R/Q172H); assay: as above; conditions: human, pH 7.4
T5 sequence (P20813 with tags, fused parts or gaps Q172H/K262R limits assumed): T1 sequence (P20813 with tags, fused parts or gaps limits assumed) with Q153H, K243R

2B6*1/*4 genotype = conditions: individuals with 2B6*1/*4 genotype, single dose; ref Kirchheiner at al., 2003; cited from earlier work
K262R [16] = conditions: bupropion to hydroxybupropion; ref Bumpus et al., 2005; cited from earlier work

O=C1Nc2ccc(Cl)cc2[C@@](C#CC2CC2)(C(F)(F)F)O1 [efavirenz]
Km (CYP2B6dH [1]; read-out: Km for efavirenz hydroxylation (CYP2B6dH)): 14.3 µM
kcat for efavirenz hydroxylation (CYP2B6dH) (CYP2B6dH [1]): 4.3 min⁻¹
Increased catalytic efficiency, K262R compared with CYP2B6dH (K262R [2]; efavirenz to 8-hydroxyefavirenz): ~ 2 fold
Km (K262R [2]; read-out: Km for efavirenz hydroxylation (K262R)): 15.9 µM
kcat for efavirenz hydroxylation (K262R) (K262R [2]): 7.9 min⁻¹
Reduced area under plasma concentration (AUC) (*1/*4 heterozygotes): 17%
Susceptibility of K262R to mechanism-based inactivation (K262R [3]): refractory

O=[N+]([O-])c1ccc(Cc2ccncc2)cc1 [4-(4-nitrobenzyl)pyridine]
Lower IC50, K262R compared with CYP2B6dH (K262R [4]): ~ 2 fold and 2 fold

O=C(c1ccc(OCCN2CCCCC2)cc1)c1c(-c2ccc(O)cc2)sc2cc(O)ccc12 [Raloxifene, raloxifene]
Predicted in vivo % activity (CYP2B6dH) (CYP2B6dH [5]): would not alter
Cmax [6]: 3 nM

CN[C@H]1CC[C@@H](c2ccc(Cl)c(Cl)c2)c2ccccc21 [Sertraline, sertraline]
Predicted inhibition of efavirenz metabolism (CYP2B6dH) (CYP2B6dH [5]): 52%
Cmax [6]: 620 nM
Kd (CYP2B6dH [7]): 510 ± 160 nM
Type of difference spectrum induced (CYP2B6dH [7]): type I
ΔAmax (CYP2B6dH) (CYP2B6dH [7]): 0.008 ± 0.0005
Kd (K262R (2B6*4) [8]): 2060 ± 610 nM
ΔAmax (K262R) (K262R (2B6*4) [8]): 0.02 ± 0.002
Higher Ks, K262R compared with CYP2B6dH (K262R (2B6*4) [8]): 4 fold
ΔAmax, K262R compared with wild-type (K262R (2B6*4) [8]): 3 fold
Increase in Ki, K262R compared with CYP2B6dH (K262R (2B6*4) [9]): ~ 6 fold and 6 fold
Increase in Ki, Q172H/K262R compared with CYP2B6dH (Q172H/K262R (2B6*6) [10]): > 6 fold and > 7 fold
Ki (Q172H/K262R (2B6*6) [10]): 2200 nM and 2160 nM

CCC(C)n1ncn(-c2ccc(N3CCN(c4ccc(OCC5COC(Cn6cncn6)(c6ccc(Cl)cc6Cl)O5)cc4)CC3)cc2)c1=O (stereo not drawn) [Itraconazole, itraconazole]
Predicted inhibition of efavirenz metabolism (K262R) (K262R [11]; in vivo prediction): 20%
Predicted inhibition of efavirenz metabolism (CYP2B6dH) (CYP2B6dH [5]): 43%
Cmax [6]: 1900 nM
Kd (CYP2B6dH [7]): 70 ± 130 nM
Type of difference spectrum induced (CYP2B6dH [7]): type I
ΔAmax (CYP2B6dH) (CYP2B6dH [7]): 0.022 ± 0.003
Kd (K262R (2B6*4) [8]): 1730 ± 440 nM
ΔAmax (K262R) (K262R (2B6*4) [8]): 0.021 ± 0.002
Higher Ks, K262R compared with CYP2B6dH (K262R (2B6*4) [8]): > 20 fold and ~20 fold
ΔAmax, K262R compared with wild-type (K262R (2B6*4) [8]): similar
Increase in Ki, K262R compared with CYP2B6dH (K262R (2B6*4) [9]): > 3 fold

COC(=O)[C@H](c1ccccc1Cl)N1CCc2sccc2C1 [Clopidogrel, clopidogrel]
Predicted in vivo activity (K262R) (K262R [11]): 0.27 (7.6) min^−1
Cmax [6]: 9300 nM
Kd (CYP2B6dH [7]): 160 ± 110 nM
Type of difference spectrum induced (CYP2B6dH [7]): type I
ΔAmax (CYP2B6dH) (CYP2B6dH [7]): 0.026 ± 0.002
Kd (K262R (2B6*4) [8]): 330 ± 140 nM
ΔAmax (K262R) (K262R (2B6*4) [8]): 0.030 ± 0.002
ΔAmax, K262R compared with wild-type (K262R (2B6*4) [8]): similar
Increase in Ki, K262R compared with CYP2B6dH (K262R (2B6*4) [9]): 4 fold
Increase in Ki, K262R compared with CYP2B6dH (K262R (2B6*4) [9]; listed as clopidogrel): > 3 fold
Increase in Ki, Q172H/K262R compared with CYP2B6dH (Q172H/K262R (2B6*6) [10]; listed as clopidogrel): > 6 fold and 6 fold
Ki (Q172H/K262R (2B6*6) [10]): 600 nM and 590 nM and 630 nM

c1ccc(-c2ccc(Cn3ccnc3)cc2)cc1 [1-(4-phenyl)benzylimidazole]
Lower IC50, K262R compared with CYP2B6dH (K262R [4]): ~ 2 fold and 2 fold

O=C1Nc2c(O)cc(Cl)cc2[C@@](C#CC2CC2)(C(F)(F)F)O1 [8-hydroxyefavirenz]
Susceptibility of K262R to mechanism-based inactivation (K262R [3]): preserved

Clc1ccccc1CN1CCc2sccc2C1 [Ticlopidine, ticlopidine]
Predicted in vivo activity (K262R) (K262R [11]): 0.47 (13) min^−1
Cmax [6]: 1600 nM
Type of difference spectrum induced (CYP2B6dH [7]): type I
ΔAmax (CYP2B6dH) (CYP2B6dH [7]): 0.023 ± 0.001
ΔAmax (K262R) (K262R (2B6*4) [8]): 0.025 ± 0.001
Higher Ks, K262R compared with CYP2B6dH (K262R (2B6*4) [8]): No significant changes
ΔAmax, K262R compared with wild-type (K262R (2B6*4) [8]): similar
Increase in Ki, K262R compared with CYP2B6dH (K262R (2B6*4) [9]): similar

COc1ccc2c(C(F)(F)F)cc(=O)oc2c1 [7-MFC, 7-Methoxy-4-(trifluoromethyl) coumarin]
kcat for 7-MFC oxidation (CYP2B6dH) (CYP2B6dH [12]): 3.8 min⁻¹
Km higher, Q172H/K262R vs CYP2B6dH or K262R (Q172H/K262R (2B6*6) [13]): ~ 10 fold
kcat lower, Q172H/K262R vs CYP2B6dH or K262R (Q172H/K262R (2B6*6) [13]): > 2 fold
Km at 5 min (CYP2B6dH [14]): 5.1 µM
Km at 5 min (CYP2B6 K262R (2B6*4)): 5 µM
kcat for 7-MFC oxidation (K262R) (K262R (2B6*4) [9]): 4.9 min⁻¹
Km at 5 min [15]: 49 µM
kcat for 7-MFC oxidation (Q172H/K262R) (Q172H/K262R (2B6*6) [10]): 1.3 min⁻¹

CC(NC(C)(C)C)C(=O)c1cccc(Cl)c1 (stereo not drawn) [bupropion]
Increased clearance (2B6*1/*4 genotype): 1.3 fold
Increased kcat, K262R compared with CYP2B6dH (K262R [16]): > 2 fold

S=P(N1CC1)(N1CC1)N1CC1 [N,N′,N″-triethylenethiophosphoramide]
Susceptibility of K262R to mechanism-based inactivation (K262R [3]): preserved

C#C[C@]1(O)CC[C@H]2[C@@H]3CCc4cc(O)ccc4[C@H]3CC[C@@]21C [17α-ethynylestradiol]
Susceptibility of K262R to mechanism-based inactivation (K262R [3]): refractory

CC(C)=CCC/C(C)=C/COc1c2ccoc2cc2oc(=O)ccc12 [bergamottin]
Susceptibility of K262R to mechanism-based inactivation (K262R [3]): preserved

Clc1ccccc1C(c1ccccc1)(c1ccccc1)n1ccnc1 [Clotrimazole, clotrimazole]
Predicted in vivo % activity (CYP2B6dH) (CYP2B6dH [5]): 6%
Cmax [6]: 3700 nM
Increase in Ki, K262R compared with CYP2B6dH (K262R (2B6*4) [9]): similar

c1ccc(-c2ccncc2)cc1 [4-(phenyl)pyridine]
Lower IC50, K262R compared with CYP2B6dH (K262R [4]): 10 fold
